Experiment [1] concerns the target T1, MLKL (Homo sapiens, UniProt Q8NB16).
T1 sequence (Q8NB16 1-471): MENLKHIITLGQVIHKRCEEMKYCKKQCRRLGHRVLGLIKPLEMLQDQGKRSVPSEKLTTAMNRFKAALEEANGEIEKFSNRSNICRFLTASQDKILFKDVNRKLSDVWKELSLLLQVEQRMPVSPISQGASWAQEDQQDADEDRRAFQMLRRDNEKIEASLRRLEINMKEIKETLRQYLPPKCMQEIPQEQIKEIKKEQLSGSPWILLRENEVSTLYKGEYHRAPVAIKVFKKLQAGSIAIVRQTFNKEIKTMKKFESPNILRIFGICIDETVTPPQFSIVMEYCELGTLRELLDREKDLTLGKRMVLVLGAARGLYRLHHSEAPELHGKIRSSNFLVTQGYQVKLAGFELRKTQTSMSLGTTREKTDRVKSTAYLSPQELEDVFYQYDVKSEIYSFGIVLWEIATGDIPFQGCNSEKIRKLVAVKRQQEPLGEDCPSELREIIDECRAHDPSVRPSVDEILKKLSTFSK
As to the kind of experiment: Measurement of binding affinity with MLKL receptor (competitive binding assay, Kd). Further details: made in house; host or cells: HEK 293 cell line (T7 phage in E. coli BL21-derived host is also described). A digest of the protocol: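 Competition binding of kinase tagged with DNA for qPCR detection, expressed in HEK 293 cells, against immobilized ligand on beads. Final DMSO 0.9%. Kd derived from kinase amount in eluates measured by qPCR.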

Experiment [2] deals with FADD−/− Jurkat cells. The experiment in a line: Necroptosis inhibition assay, TNF-α-induced necroptosis (CellTiter-Glo 2.0). To be noted: TNF-α 15 ng/mL; for Necroptosis inhibition assay (Rescue %) 1 μM: compound 1 μM; for Necroptosis inhibition assay (Rescue %) 10 μM: compound 10 μM. Type of experiment: cell-based, human. A digest of the protocol: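 Luminescent ATP measurement gave viability, from which cytotoxicity and necroptosis inhibition rate were derived. Before that, cells (5.0×10^5 cells/mL) saw compound at 0.1, 1 or 10 μM final for 30 minutes at room temperature, then TNF-α (15 ng/mL final) for 20 to 24 hours at 37° C.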
Background: Cellular ATP, detected with luciferase, serves as a proxy for viable cell number.

Experiment [3] has as its target T1, MLKL. As to the kind of experiment: MLKL degradation assay in HepG2 cell line (western blot). Type of experiment: cell-based. The conditions noted are these: cell line not given; for Degradation assay (Degradation %) 1 μM: compound 1 μM; for Degradation assay (Degradation %) 10 μM: compound 10 μM. Further details: endogenous in cells; host or cells: HepG2 or HaCaT. How it is done: MLKL degradation ability was evaluated in the following method.
1 mL of Human liver cancer cell line (HepG2 cell line) or human skin cell line (HaCaT cell line) was equally distributed into each well at 2.0×10^5 cells/mL in a 12-well cell culture plate. On the next day, the medium was replaced with a medium made so that the final concentration of test compound was 1 or 10 μM (1 mL/well), and incubated in 5% CO2, at 37° C. for 20-24 hours (Thermo scientific, Forma steri-cycle).
For protein preparation after incubation, cells were washed with 1×TBST, and 60 μL of RIPA lysis buffer containing Halt™ Protease and Phosphatase Inhibitor Cocktail was dispensed into each well. After scraping the cells with a scraper, the cells were recovered, and the pallet was homogenized and reacted on ice for 30 minutes. After the cells were centrifuged at 13,000 rpm, 10 minutes, 4° C., the supernatant was transferred to a new E-tube. For protein quantification, after dispensing sample and BCA (0-4 mg/ml) in a 96 well plate, 100 μL of BCA was dispensed and reacted in a 37° C. incubator for 30 minutes. After measuring the absorbance (SpectraMax, M5e, 562 nm), the amount of the sample was adjusted with the same concentration of protein and 4× Laemmli sample buffer, DW, and reacted at 100° C. for 5 minutes.
After assembling the MP TGX Precast Gel in the Mini-PROTEAN Tetra Cell, the same protein (10-15 μg) was added in an 8-10 μL volume per well, 1×Tris-Glycine Buffer was added, and loading was performed. After loading was completed, transfer was performed using Pierce G2 Fast Blotter and Pierce 1-Step Transfer Buffer. After completion of the transfer, 10 ml of SuperBlock™ Blocking Buffer was dispensed and reacted at room temperature for 10 minutes. 5% BSA containing the primary antibody was dispensed and reacted over night at 4° C. The next day, washing was performed three times with 1×TBST at room temperature for 10 minutes. 5% BSA containing the secondary antibody was dispensed and reacted at room temperature for 1 hour. Washing was performed three times with 1×TBST at room temperature for 10 minutes. The amount of protein expression was measured using chemiluminescence (LuminoGraph, ATTO).
Background: A western blot detects proteins with antibodies after separation by electrophoresis.

The values below come from US20240252488A1 (KOREA RESEARCH INSTITUTE OF CHEMICAL TECHNOLOGY, priority 2020, published 2024).

As to `Nc1ncc(-c2cnn(C3CCN(CCCN4CCN(C(=O)c5cccc(C(=O)NC6CCC(=O)NC6=O)c5)CC4)CC3)c2)nc1C(=O)O[C@@H](C(=O)Nc1ccc(F)cc1)c1ccccc1` (stereo partly drawn) [TDH-542, (R)-2-((4-fluorophenyl)amino)-2-oxo-1-phenylethyl 3-amino-6-(1-(1-(3-(4-(3-((2,6-dioxopiperidin-3-yl)carbamoyl)benzoyl)piperazin-1-yl)propyl)piperidin-4-yl)-1H-pyrazol-4-yl)pyrazine-2-carboxylate], the dissociation constant (Kd) in experiment [1] was 0.53 nM. In experiment [2] (FADD−/− Jurkat cells), the “Necroptosis inhibition assay (Rescue %) 1 μM” value amounted to 24.80% and the “Necroptosis inhibition assay (Rescue %) 10 μM” value came out at 29.40%. For the same compound, in experiment [3], the “Degradation assay (Degradation %) 1 μM” value worked out at 84.12% and the “Degradation assay (Degradation %) 10 μM” value was 72.45%.

In experiment [1], `COc1ccc(C(=O)N2CCN(CCCN3CCC(n4cc(-c5cnc(N)c(C(=O)O[C@@H](C(=O)Nc6ccc(F)cc6)c6ccccc6)n5)cn4)CC3)CC2)cc1N1CCC(=O)NC1=O` [TDH-447, (R)-2-((4-fluorophenyl)amino)-2-oxo-1-phenylethyl 3-amino-6-(1-(1-(3-(4-(3-(2,4-dioxotetrahydropyrimidin-1(2H)-yl)-4-methoxybenzoyl)piperazin-1-yl)propyl)piperidin-4-yl)-1H-pyrazol-4-yl)pyrazine-2-carboxylate] gave a Kd of 0.17 nM. Further, in experiment [2] (FADD−/− Jurkat cells), the “Necroptosis inhibition assay (Rescue %) 1 μM” value is on record as 33.69% and the “Necroptosis inhibition assay (Rescue %) 10 μM” value amounted to 14.38%. In experiment [3], the “Degradation assay (Degradation %) 1 μM” value is listed as 60.39% and the “Degradation assay (Degradation %) 10 μM” value was found to be 14.41%.

The compound `Nc1ncc(-c2cnn(C3CCN(CCCN4CCN(C(=O)COc5ccc6c(c5)C(=O)N(C5CCC(=O)NC5=O)C6=O)CC4)CC3)c2)nc1C(=O)O[C@@H](C(=O)Nc1ccc(F)cc1)c1ccccc1Cl` (stereo partly drawn) [TDH-494, (R)-1-(2-chlorophenyl)-2-((4-fluorophenyl)amino)-2-oxoethyl 3-amino-6-(1-(1-(3-(4-(2-((2-(2,6-dioxopiperidin-3-yl)-1,3-dioxoisoindolin-5-yl)oxy)acetyl)piperazin-1-yl)propyl)piperidin-4-yl)-1H-pyrazol-4-yl)pyrazine-2-carboxylate] registered a Kd in experiment [1] of 0.98 nM. Besides, in experiment [2] (FADD−/− Jurkat cells), the “Necroptosis inhibition assay (Rescue %) 1 μM” value is 43.07% and the “Necroptosis inhibition assay (Rescue %) 10 μM” value is −7.06%. In addition, in experiment [3], the “Degradation assay (Degradation %) 1 μM” value is on record as 80.66% and the “Degradation assay (Degradation %) 10 μM” value was 88.82%.

In experiment [1], `Nc1ncc(-c2cnn(C3CCN(CCC4CCN(c5cccc6c5C(=O)N(C5CCC(=O)NC5=O)C6=O)CC4)CC3)c2)nc1C(=O)O[C@@H](C(=O)Nc1ccc(F)cc1)c1ccccc1` (stereo partly drawn) [TDH-202, (R)-2-((4-fluorophenyl)amino)-2-oxo-1-phenylethyl 3-amino-6-(1-(1-(2-(1-(2-(2,6-dioxopiperidin-3-yl)-1,3-dioxoisoindolin-4-yl)piperidin-4-yl)ethyl)piperidin-4-yl)-1H-pyrazol-4-yl)pyrazine-2-carboxylate] registered a Kd of 2.1 nM. In experiment [2], the “Necroptosis inhibition assay (Rescue %) 1 μM” value amounted to 60.16% and the “Necroptosis inhibition assay (Rescue %) 10 μM” value is recorded as 29.13%. In experiment [3], the “Degradation assay (Degradation %) 1 μM” value came out at 65.39% and the “Degradation assay (Degradation %) 10 μM” value is listed as 53.78%.

For `Nc1ncc(-c2cnn(C3CCN(CC4CCN(C(=O)CNc5ccc6nnn(C7CCC(=O)NC7=O)c(=O)c6c5)CC4)CC3)c2)nc1C(=O)O[C@@H](C(=O)Nc1ccc(F)cc1)c1ccccc1` (stereo partly drawn) [TDH-152, (R)-2-((4-fluorophenyl)amino)-2-oxo-1-phenylethyl 3-amino-6-(1-(1-((1-((3-(2,6-dioxopiperidin-3-yl)-4-oxo-3,4-dihydrobenzo[d][1,2,3]triazin-6-yl)glycyl)piperidin-4-yl)methyl)piperidin-4-yl)-1H-pyrazol-4-yl)pyrazine-2-carboxylate], the Kd in experiment [1] is 2.7 nM. In addition, in experiment [2], the “Necroptosis inhibition assay (Rescue %) 1 μM” value worked out at 63.2% and the “Necroptosis inhibition assay (Rescue %) 10 μM” value was found to be 41.21%. In experiment [3], the “Degradation assay (Degradation %) 1 μM” value is recorded as 51.96% and the “Degradation assay (Degradation %) 10 μM” value amounted to 35.05%.

As to `Nc1ncc(-c2cnn(C3CN(CC4CCN(C(=O)COc5ccc6c(c5)C(=O)N(C5CCC(=O)NC5=O)C6=O)CC4)C3)c2)nc1C(=O)OC(C(=O)Nc1ccc(F)cc1)c1ccccc1` (stereo not drawn) [TDH-299, 2-((4-fluorophenyl)amino)-2-oxo-1-phenylethyl 3-amino-6-(1-(1-((1-(2-((2-(2,6-dioxopiperidin-3-yl)-1,3-dioxoisoindolin-5-yl)oxy)acetyl)piperidin-4-yl)methyl)azetidin-3-yl)-1H-pyrazol-4-yl)pyrazine-2-carboxylate], the affinity in experiment [1], expressed as Kd, was 7.2 nM. In experiment [2], the “Necroptosis inhibition assay (Rescue %) 1 μM” value was 75.61% and the “Necroptosis inhibition assay (Rescue %) 10 μM” value is given as 62.7%. Also, in experiment [3], the “Degradation assay (Degradation %) 1 μM” value came out at 79.84% and the “Degradation assay (Degradation %) 10 μM” value was found to be 89.54%.

`Nc1ncc(-c2cnn(C3CCN(C(=O)CCC4CCN(C(=O)C5CCN(c6cccc7nnn(C8CCC(=O)NC8=O)c(=O)c67)CC5)CC4)CC3)c2)nc1C(=O)O[C@@H](C(=O)Nc1ccc(F)cc1)c1ccccc1` (stereo partly drawn) [TDH-435, (R)-2-((4-fluorophenyl)amino)-2-oxo-1-phenylethyl 3-amino-6-(1-(1-(3-(1-(1-(3-(2,6-dioxopiperidin-3-yl)-4-oxo-3,4-dihydrobenzo[d][1,2,3]triazin-5-yl)piperidine-4-carbonyl)piperidin-4-yl)propanoyl)piperidin-4-yl)-1H-pyrazol-4-yl)pyrazine-2-carboxylate] displayed a Kd in experiment [1] of 1.8 nM. Moreover, in experiment [2] (FADD−/− Jurkat cells), the “Necroptosis inhibition assay (Rescue %) 1 μM” value is reported as 18.26% and the “Necroptosis inhibition assay (Rescue %) 10 μM” value worked out at 11.49%. In experiment [3], the “Degradation assay (Degradation %) 1 μM” value was 79.73% and the “Degradation assay (Degradation %) 10 μM” value was found to be 64.92%.

Take `Nc1ncc(-c2cnn(C3CCN(C(=O)CCC4CCN(C(=O)CNc5ccc6c(c5)C(=O)N(C5CCC(=O)NC5=O)C6=O)CC4)CC3)c2)nc1C(=O)O[C@@H](C(=O)Nc1ccc(F)cc1)c1ccccc1` (stereo partly drawn) [TDH-422, (R)-2-((4-fluorophenyl)amino)-2-oxo-1-phenylethyl 3-amino-6-(1-(1-(3-(1-((2-(2,6-dioxopiperidin-3-yl)-1,3-dioxoisoindolin-5-yl)glycyl)piperidin-4-yl)propanoyl)piperidin-4-yl)-1H-pyrazol-4-yl)pyrazine-2-carboxylate]: the Kd in experiment [1] came to 4.1 nM. For the same compound, in experiment [2] (FADD−/− Jurkat cells), the “Necroptosis inhibition assay (Rescue %) 1 μM” value is recorded as 50.21% and the “Necroptosis inhibition assay (Rescue %) 10 μM” value was determined as 40.34%. In experiment [3], the “Degradation assay (Degradation %) 1 μM” value is given as 91.95% and the “Degradation assay (Degradation %) 10 μM” value came out at 89.12%.

`Nc1ncc(-c2ccc(N3CCN(CCOCCOCCNC(=O)C4CCN(c5cccc6c5C(=O)N(C5CCC(=O)NC5=O)C6=O)CC4)CC3)nc2)nc1C(=O)OC(C(=O)Nc1ccc(F)cc1)c1ccccc1` (stereo not drawn) [TDH-257, 2-((4-fluorophenyl)amino)-2-oxo-1-phenylethyl 3-amino-6-(6-(4-(2-(2-(2-(1-(2-(2,6-dioxopiperidin-3-yl)-1,3-dioxoisoindolin-4-yl)piperidine-4-carboxamido)ethoxy)ethoxy)ethyl)piperazin-1-yl)pyridin-3-yl)pyrazine-2-carboxylate]: in experiment [1], the Kd turned out to be 96 nM. Besides, in experiment [2], the “Necroptosis inhibition assay (Rescue %) 1 μM” value is on record as 24.61% and the “Necroptosis inhibition assay (Rescue %) 10 μM” value stood at 21.71%. For the same compound, in experiment [3], the “Degradation assay (Degradation %) 1 μM” value came out at 7.56% and the “Degradation assay (Degradation %) 10 μM” value is 26.63%.

As a reminder, the Kd is a measure of binding affinity in units of concentration.
